# Assay results taken from patent US9365522B2, “Pyrazole amide derivative” (AMGEN INC., priority 2015, dated 2016).
# Target: T1, ligand binding domain of human ROR gamma (Homo sapiens, UniProt P51449)
# T1 construct: NM_001001523; expressed in transfected cells; host or cells: HEK293T
# T1 sequence (P51449 247-497 isoform P51449-2): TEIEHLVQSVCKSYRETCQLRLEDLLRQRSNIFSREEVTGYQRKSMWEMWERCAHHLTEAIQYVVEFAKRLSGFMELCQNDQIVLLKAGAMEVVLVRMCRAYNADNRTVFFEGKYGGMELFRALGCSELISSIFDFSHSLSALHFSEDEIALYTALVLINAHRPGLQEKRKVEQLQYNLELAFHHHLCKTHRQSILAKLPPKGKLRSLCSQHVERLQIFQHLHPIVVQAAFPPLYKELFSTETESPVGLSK
# Assay: ROR gamma reporter gene assay (GAL4-RORγ LBD luciferase, Dual-Glo)
# Format: cell-based
# Details: HEK293T cells transfected with pM-ROR gamma, 8 concentrations 3.5 nM to 10.5 μM, 24 h incubation
# How it was run: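 First, HEK293T cells are transfected with the GAL4–RORγ LBD construct, a 5×UAS luciferase reporter and a constitutive renilla control. Next, test compounds are added over eight concentrations (3.5 nM to 10.5 μM). After 24 h at 37 °C, Dual-Glo luminescence is measured and pIC50 fitted.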
row,Molecule,"result (pIC50, inhibition of RORγ transcriptional activity)"
1,"cis-3-(4-((2-(3,5-dichloropyridin-4-yl)-2- oxoethyl)(4-fluorobenzyl)carbamoyl)-5- (trifluoromethyl)-1H-pyrazol-1-yl)-1- fluorocyclohexanecarboxylic acid [Example 83]",5.78

# Same assay, conditions: HEK293T cells transfected with pM-ROR gamma, 8 concentrations 3.5 nM to 10.5 μM, 24 h incubation; read-out: result (pIC50, inhibition of RORγ transcriptional activity) (converted)
row,Molecule,IC50
1,"CC1(C)[C@@H]2C[C@H](N(CC(=O)c3c(F)cncc3Cl)C(=O)c3cnn([C@H]4CC[C@](C)(C(=O)O)CC4)c3C(F)(F)F)C[C@@H]21 [Example 333, trans-4-(4-((2-(3-chloro-5-fluoropyridin-4-yl)-2-oxoethyl)((1R,3r,5S)-6,6-dimethylbicyclo[3.1.0]hexan-3-yl)carbamoyl)-5-(trifluoromethyl)-1H-pyrazol-1-yl)-1-methylcyclohexanecarboxylic acid]",17000 pM
2,"CC12CCC(CN(CC(=O)c3c(Cl)cc(F)cc3Cl)C(=O)c3cnn([C@H]4CC[C@](C)(C(=O)O)CC4)c3C(F)(F)F)(CC1)C2 [Example 274, trans-4-(4-((2-(2,6-dichloro-4-fluorophenyl)-2-oxoethyl)-((1-methyl-4-bicyclo[2.2.1]heptanyl)methyl)carbamoyl)-5-(trifluoromethyl)pyrazol-1-yl)-1-methylcyclohexane-1-carboxylic acid]",8320 pM
3,"CC1(C)[C@@H]2C[C@H](N(C[C@@](C)(O)c3ccccc3Cl)C(=O)c3cnn([C@H]4CC[C@](C)(C(=O)O)CC4)c3C(F)(F)F)C[C@@H]21 [Example 393, trans-4-(4-((2-(2-chlorophenyl)-2-hydroxypropyl)((1R,3r,5S)-6,6-dimethylbicyclo[3.1.0]hexan-3-yl)carbamoyl)-5-(trifluoromethyl)-1H -pyrazol-1-yl)-1-methylcyclohexanecarboxylic acid]",4.57e+06 pM
4,"O=C(CN(CC1(F)CCCC1)C(=O)c1cnn(C23CCC(C(=O)O)(CC2)CC3)c1C(F)(F)F)c1c(Cl)cncc1Cl [Example 299, 4-(4-((2-(3,5-dichloropyridin-4-yl)-2-oxoethyl)-((1-fluorocyclopentyl)methyl)carbamoyl)-5-(trifluoromethyl)pyrazol-1-yl)bicyclo[2.2.2]octane-1-carboxylic acid]",20900 pM
5,"CC1(C)CCC(N(CC(O)c2c(Cl)cc(F)cc2Cl)C(=O)c2cnn([C@H]3CC[C@](C)(C(=O)O)CC3)c2C(F)(F)F)CC1 (single isomer, unassigned) [Example 362, trans-4-(4-(((2R)-2-(2,6-dichloro-4-fluorophenyl)-2-hydroxyethyl)-(4,4-dimethylcyclohexyl)carbamoyl)-5-(trifluoromethyl)pyrazol-1-yl)-1-methylcyclohexane-1-carboxylic acid or trans-4-(4-(((2S)-2-(2,6-dichloro-4-fluorophenyl)-2-hydroxyethyl)-(4,4-dimethylcyclohexyl)carbamoyl)-5-(trifluoromethyl)pyrazol-1-yl)-1-methylcyclohexane-1-carboxylic acid]",57500 pM
6,"CC1(C)CCC(N(CC(O)c2c(Cl)cc(F)cc2Cl)C(=O)c2cnn([C@H]3CC[C@](C)(C(=O)O)CC3)c2C(F)(F)F)CC1 (single isomer, unassigned) [Example 361, trans-4-(4-(((2R)-2-(2,6-dichloro-4-fluorophenyl)-2-hydroxyethyl)-(4,4-dimethylcyclohexyl)carbamoyl)-5-(trifluoromethyl)pyrazol-1-yl)-1-methylcyclohexane-1-carboxylic acid or trans-4-(4-(((2S)-2-(2,6-dichloro-4-fluorophenyl)-2-hydroxyethyl)-(4,4-dimethylcyclohexyl)carbamoyl)-5-(trifluoromethyl)pyrazol-1-yl)-1-methylcyclohexane-1-carboxylic acid]",1.2e+06 pM
7,"CC1(C)[C@@H]2C[C@H](N(CC(=O)c3c(Cl)cc(F)cc3Cl)C(=O)c3cnn([C@H]4CC[C@](C)(C(=O)O)CC4)c3C(F)(F)F)C[C@@H]21 [Example 199, trans-4-(4-((2-(2,6-dichloro-4-fluorophenyl)-2-oxoethyl)-((1R,3r,5S)-6,6-dimethyl-3-bicyclo[3.1.0]hexanyl)carbamoyl)-5-(trifluoromethyl)pyrazol-1-yl)-1-methylcyclohexane-1-carboxylic acid]",5010 pM
8,"CC(C)(C)CN(CC(=O)c1c(Cl)cc(F)cc1Cl)C(=O)c1cnn(C23CCC(C(=O)O)(CC2)CC3)c1C(F)(F)F [Example 245, 4-(4-((2-(2,6-dichloro-4-fluorophenyl)-2-oxoethyl)-(2,2-dimethylpropyl)carbamoyl)-5-(trifluoromethyl)pyrazol-1-yl)bicyclo[2.2.2]octane-1-carboxylic acid]",8910 pM
9,"C[C@]1(C(=O)O)CC[C@H](n2ncc(C(=O)N(CC(=O)c3c(Cl)cc(F)cc3Cl)CC3(F)CCCC3)c2C(F)(F)F)CC1 [Example 224, trans-4-(4-((2-(2,6-dichloro-4-fluorophenyl)-2-oxoethyl)-((1-fluorocyclopentyl)methyl)carbamoyl)-5-(trifluoromethyl)pyrazol-1-yl)-1-methylcyclohexane-1-carboxylic acid]",2690 pM

# Further lines, results first:
row,IC50,Molecule
1,> 1.05e+06 pM,"O=C(CN(Cc1cc(F)cc(F)c1)C(=O)c1cnn([C@H]2CC[C@H](C(=O)O)CC2)c1C(F)(F)F)c1c(Cl)nsc1Cl [Example 216, trans-4-(4-((2-(3,5-dichloro-1,2-thiazol-4-yl)-2-oxoethyl)-((3,5-difluorophenyl)methyl)carbamoyl)-5-(trifluoromethyl)pyrazol-1-yl)cyclohexane-1-carboxylic acid]"
2,> 1e+07 pM,"CN1CCC(CN(CC(=O)c2c(Cl)cncc2Cl)C(=O)c2cnn([C@H]3CC[C@H](C(=O)O)CC3)c2C(F)(F)F)CC1 [Example 154, trans-4-(4-((2-(3,5-dichloropyridin-4-yl)-2-oxoethyl)-((1-methylpiperidin-4-yl)methyl)carbamoyl)-5-(trifluoromethyl)pyrazol-1-yl)cyclohexane-1-carboxylic acid]"
3,> 1e+07 pM,"Cc1csc(C)c1C(=O)CN(Cc1cc(F)cc(F)c1)C(=O)c1cnn([C@H]2CC[C@H](C(=O)O)CC2)c1C(F)(F)F [Example 3, trans-4-(4-((3,5-difluorobenzyl)(2-(2,4-dimethylthiophen-3-yl)-2-oxoethyl)carbamoyl)-5-(trifluoromethyl)-1H-pyrazol-1-yl)cyclohexanecarboxylic acid]"
4,1.02e+06 pM,"CC(C)c1c(C(=O)N(CC(=O)c2c(Cl)cncc2Cl)Cc2cc(F)cc(F)c2)cnn1[C@H]1CC[C@H](C(=O)O)CC1 [Example 162, trans-4-(4-((2-(3,5-dichloropyridin-4-yl)-2-oxoethyl)-((3,5-difluorophenyl)methyl)carbamoyl)-5-propan-2-ylpyrazol-1-yl)cyclohexane-1-carboxylic acid]"
5,56200 pM,"COc1cc(Cl)c(C(=O)CN(Cc2cc(F)cc(F)c2)C(=O)c2cnn([C@H]3CC[C@H](C(=O)O)CC3)c2C(F)(F)F)c(Cl)c1 [Example 67, trans-4-(4-((2-(2,6-dichloro-4-methoxyphenyl)-2-oxoethyl)(3,5-dffluorobenzyl)carbamoyl)-5-(trifluoromethyl)-1H-pyrazol-1-yl)cyclohexanecarboxylic acid]"
6,33900 pM,"O=C(CN(Cc1cccc(F)c1F)C(=O)c1cnn([C@H]2CC[C@H](C(=O)O)CC2)c1C(F)(F)F)c1c(Cl)cncc1Cl [Example 43, trans-4-(4-((2-(3,5-dichloropyridin-4-yl)-2-oxoethyl)(2,3-difluorobenzyl)carbamoyl)-5-(trifluoromethyl)-1H-pyrazol-1-yl)cyclohexanecarboxylic acid]"
7,6460 pM,"CC12CCC(CN(CC(=O)c3c(Cl)cc(F)cc3Cl)C(=O)c3cnn([C@H]4CC[C@H](C(=O)O)CC4)c3C(F)(F)F)(CC1)C2 [Example 193, trans-4-(4-((2-(2,6-dichloro-4-fluorophenyl)-2-oxoethyl)-((1-methyl-4-bicycio[2.2.1]heptanyl)methyl)carbamoyl)-5-(trifluoromethyl)pyrazol-1-yl)cyclohexane-1-carboxylic acid]"
8,2.04e+06 pM,"O=C(CN(Cc1cc(F)cc(F)c1)C(=O)c1cnn([C@H]2CC[C@H](C(=O)O)CC2)c1C(F)(F)F)c1c(Cl)cc(OC(F)(F)F)cc1Cl [Example 127, trans-4-(4-((2-(2,6-dichloro-4-(trifluoromethoxy)phenyl)-2-oxoethyl)-((3,5-difluorophenyl)methyl)carbamoyl)-5-(trifluoromethyl)pyrazol-1-yl)cyclohexane-1-carboxylic acid]"
9,87100 pM,"CONC(=O)[C@H]1CC[C@H](n2ncc(C(=O)N(CC(=O)c3c(Cl)cncc3Cl)Cc3cc(F)cc(F)c3)c2C(F)(F)F)CC1 [Example 6, N-(2-(3,5-dichloropyridin-4-yl)-2-oxoethyl)-N-(3,5-difluorobenzyl)-1-(trans-4-(methoxycarbamoyl)cyclohexyl)-5-(trifluoromethyl)-1H-pyrazole-4-carboxamide]"
10,1.32e+06 pM,"C#Cc1cccc(Cl)c1C(=O)CN(Cc1cc(F)cc(F)c1)C(=O)c1cnn([C@H]2CC[C@H](C(=O)O)CC2)c1C(F)(F)F [Example 68, trans-4-(4-((2-(2-chloro-6-ethynylphenyl)-2-oxoethyl)(3,5-difluorobenzyl)carbamoyl)-5-(trifluoromethyl)-1H-pyrazol-1-yl)cyclohexanecarboxylic acid]"
